Measurements: patent publication US20250361230A1, “LATS Inhibitors and Uses Thereof” (The USA, as Represented by the Secretary, Dept. of Heath …, priority 2022, published 2025)
pIC50: −log10 of the molar value. Like-named read-outs stand apart in the source and are kept apart here.

Tests used:
Assay type in all cases: biochemical
AKT = AKT (Homo sapiens, UniProt P31749); experiment: RBC HotSpot kinase assay (33P-ATP, P81 filter-binding), AKT; conditions: read-out: AKT IC50
Summary of the method: (§1)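 Radiometric 33P-ATP kinase reaction in 20 mM Hepes pH 7.5, 10 mM MgCl2, 1 mM EGTA, 0.01% Brij35, 0.02 mg/ml BSA, 0.1 mM Na3VO4, 2 mM DTT, 1% DMSO. Compound preincubated with kinase and substrate 20 min, then 2 h at room temperature; P81 filter-binding read-out. IC50 (nM) from 10-point singlet curves.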

LATS2 = target: T1, LATS2 (Homo sapiens, UniProt Q9NRM7); experiment: RBC HotSpot kinase assay (33P-ATP, P81 filter-binding), LATS2; conditions: read-out: LATS2 IC50
T1 sequence (Q9NRM7 1-1088): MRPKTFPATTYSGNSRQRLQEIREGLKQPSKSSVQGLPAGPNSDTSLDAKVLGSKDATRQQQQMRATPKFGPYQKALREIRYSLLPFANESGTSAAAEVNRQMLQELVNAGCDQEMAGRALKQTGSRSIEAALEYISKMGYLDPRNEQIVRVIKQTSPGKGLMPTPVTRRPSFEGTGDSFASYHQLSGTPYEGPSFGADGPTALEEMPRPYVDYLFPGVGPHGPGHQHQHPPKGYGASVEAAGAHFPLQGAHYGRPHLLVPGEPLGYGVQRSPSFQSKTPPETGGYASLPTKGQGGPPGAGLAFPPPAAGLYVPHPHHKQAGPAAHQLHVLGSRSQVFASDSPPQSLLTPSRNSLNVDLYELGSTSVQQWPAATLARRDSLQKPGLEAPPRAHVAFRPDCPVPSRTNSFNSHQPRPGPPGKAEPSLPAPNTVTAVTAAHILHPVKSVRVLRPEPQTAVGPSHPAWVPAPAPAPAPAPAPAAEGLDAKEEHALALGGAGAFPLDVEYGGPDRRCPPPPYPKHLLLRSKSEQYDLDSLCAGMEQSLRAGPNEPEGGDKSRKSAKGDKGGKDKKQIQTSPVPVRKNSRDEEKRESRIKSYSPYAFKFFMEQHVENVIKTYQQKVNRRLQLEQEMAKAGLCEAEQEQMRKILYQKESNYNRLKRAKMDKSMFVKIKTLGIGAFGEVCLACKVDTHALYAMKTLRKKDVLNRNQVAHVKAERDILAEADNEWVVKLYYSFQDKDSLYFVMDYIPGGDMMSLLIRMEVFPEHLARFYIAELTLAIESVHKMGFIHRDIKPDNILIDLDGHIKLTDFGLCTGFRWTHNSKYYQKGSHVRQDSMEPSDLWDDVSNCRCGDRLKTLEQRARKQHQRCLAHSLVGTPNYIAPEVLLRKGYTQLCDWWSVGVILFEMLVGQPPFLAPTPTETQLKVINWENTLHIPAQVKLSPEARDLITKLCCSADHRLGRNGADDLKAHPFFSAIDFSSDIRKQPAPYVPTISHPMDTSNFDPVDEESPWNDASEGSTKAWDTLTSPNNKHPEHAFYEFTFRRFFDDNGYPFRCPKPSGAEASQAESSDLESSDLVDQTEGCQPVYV
Summary of the method: as §1

LATS1 = target: T2, LATS1 (Homo sapiens, UniProt O95835); experiment: RBC HotSpot kinase assay (33P-ATP, P81 filter-binding), LATS1; conditions: read-out: LATS1 IC50
T2 sequence (O95835 1-1130): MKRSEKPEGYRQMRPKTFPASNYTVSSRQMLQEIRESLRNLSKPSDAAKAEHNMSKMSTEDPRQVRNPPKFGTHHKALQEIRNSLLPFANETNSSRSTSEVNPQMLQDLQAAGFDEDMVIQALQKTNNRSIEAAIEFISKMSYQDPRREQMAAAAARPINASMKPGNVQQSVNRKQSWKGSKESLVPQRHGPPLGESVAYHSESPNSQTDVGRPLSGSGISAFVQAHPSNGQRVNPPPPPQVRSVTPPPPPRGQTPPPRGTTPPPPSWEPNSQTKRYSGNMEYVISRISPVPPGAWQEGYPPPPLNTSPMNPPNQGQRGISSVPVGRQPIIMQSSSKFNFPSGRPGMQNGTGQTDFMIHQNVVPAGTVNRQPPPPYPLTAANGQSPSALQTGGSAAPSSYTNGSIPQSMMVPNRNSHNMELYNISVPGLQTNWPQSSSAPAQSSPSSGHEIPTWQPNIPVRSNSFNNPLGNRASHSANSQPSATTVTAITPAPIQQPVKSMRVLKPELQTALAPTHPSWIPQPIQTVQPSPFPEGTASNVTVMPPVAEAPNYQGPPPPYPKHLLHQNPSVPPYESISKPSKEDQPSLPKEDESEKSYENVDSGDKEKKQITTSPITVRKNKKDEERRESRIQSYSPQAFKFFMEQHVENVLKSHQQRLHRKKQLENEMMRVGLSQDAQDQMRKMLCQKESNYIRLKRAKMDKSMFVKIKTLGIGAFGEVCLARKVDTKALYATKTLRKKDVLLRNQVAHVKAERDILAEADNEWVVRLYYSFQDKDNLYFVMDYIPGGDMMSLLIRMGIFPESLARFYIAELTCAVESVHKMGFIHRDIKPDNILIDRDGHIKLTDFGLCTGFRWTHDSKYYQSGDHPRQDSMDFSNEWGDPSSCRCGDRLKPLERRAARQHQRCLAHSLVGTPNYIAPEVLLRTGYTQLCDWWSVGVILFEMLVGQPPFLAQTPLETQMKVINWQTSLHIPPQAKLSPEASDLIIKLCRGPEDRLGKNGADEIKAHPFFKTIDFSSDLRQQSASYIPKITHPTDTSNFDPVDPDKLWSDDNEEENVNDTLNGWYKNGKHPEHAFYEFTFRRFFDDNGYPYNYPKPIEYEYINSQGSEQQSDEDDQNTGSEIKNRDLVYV
Summary of the method: as §1

[1] = Table 32, biochemical kinase assay

Sequence of AKT (P31749 whole entry): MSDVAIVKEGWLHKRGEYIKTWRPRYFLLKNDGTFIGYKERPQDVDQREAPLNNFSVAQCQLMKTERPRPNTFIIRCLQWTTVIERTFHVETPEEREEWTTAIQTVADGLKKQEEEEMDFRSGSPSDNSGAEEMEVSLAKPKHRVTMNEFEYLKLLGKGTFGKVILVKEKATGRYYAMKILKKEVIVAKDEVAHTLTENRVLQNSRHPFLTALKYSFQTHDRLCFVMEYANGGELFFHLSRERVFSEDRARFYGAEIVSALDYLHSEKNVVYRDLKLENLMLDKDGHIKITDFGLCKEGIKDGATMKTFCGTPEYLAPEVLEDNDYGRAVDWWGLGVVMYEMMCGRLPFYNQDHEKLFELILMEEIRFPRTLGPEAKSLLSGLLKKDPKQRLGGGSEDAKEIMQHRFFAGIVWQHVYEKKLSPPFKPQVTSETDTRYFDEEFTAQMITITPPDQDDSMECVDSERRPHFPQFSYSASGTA

Structure (SMILES) | pIC50 (AKT; [1]) | pIC50 (LATS2; [1]) | pIC50 (LATS1; [1]) | pIC50 (AKT; biochemical kinase inhibition) | pIC50 (LATS2; biochemical kinase inhibition) | pIC50 (LATS1; biochemical kinase inhibition)
O=C(NCC(O)(c1ccc(Cl)cc1)c1ccc(-c2ccnc3[nH]ccc23)cc1)[C@@H]1CCCN1 (stereo partly drawn) [Compound 1023, (2S)—N-(2-(4-(1H-pyrrolo[2,3-b]pyridin-4-yl)phenyl)-2-(4-chlorophenyl)-2-hydroxyethyl)pyrrolidine-2-carboxamide] | 8.04 | 8.34 | 8.47 | – | – | –
O=C(NCC(O)(c1ccc(Cl)cc1)c1ccc(-c2ccnc3[nH]ccc23)cc1)[C@H]1CCCN1 (stereo partly drawn) [Compound 1024, (2R)-N-(2-(4-(1H-pyrrolo[2,3-b]pyridin-4-yl)phenyl)-2-(4-chlorophenyl)-2-hydroxyethyl)pyrrolidine-2-carboxamide] | 8.25 | 8.62 | 8.43 | – | – | –
NCC(=O)NCC(=O)NCC(O)(c1ccc(Cl)cc1)c1ccc(-c2ccnc3[nH]ccc23)cc1 (stereo not drawn) [Compound 1025, N-(2-(4-(1H-pyrrolo[2,3-b]pyridin-4-yl)phenyl)-2-(4-chlorophenyl)-2-hydroxyethyl)-2-(2-aminoacetamido)acetamide] | 8.51 | 8.35 | 8.39 | – | – | –
NCC(=O)NCC(O)(c1ccc(Cl)cc1)c1ccc(-c2ccnc3[nH]cc(F)c23)cc1 (stereo not drawn) [Compound 1029, 2-amino-N-(2-(4-chlorophenyl)-2-(4-(3-fluoro-1H-pyrrolo[2,3-b]pyridin-4-yl)phenyl)-2-hydroxyethyl)acetamide] | 9.15 | 8.89 | 8.59 | – | – | –
CN(CC(O)(c1ccc(Cl)cc1)c1ccc(-c2ccnc3[nH]ccc23)cc1)C(=O)CN (stereo not drawn) [Compound 1030, N-(2-(4-(1H-pyrrolo[2,3-b]pyridin-4-yl)phenyl)-2-(4-chlorophenyl)-2-hydroxyethyl)-2-amino-N-methylacetamide] | 8.96 | 8.29 | 8.36 | – | – | –
N#Cc1c[nH]c2nccc(-c3ccc(C4(O)CCNCC4)cc3)c12 [Compound 2001, 4-(4-(4-hydroxypiperidin-4-yl)phenyl)-1H-pyrrolo[2,3-b]pyridine-3-carbonitrile] | – | – | – | 6.56 | 8.48 | 8.48
CN[C@@H](CO)C(=O)N1C[C@@H](C)[C@](O)(c2c(C)cc(-c3ccnc4[nH]cc(C#N)c34)cc2F)[C@@H](C)C1 [Compound 2009, 4-(3-fluoro-4-((3S,4R,5R)-4-hydroxy-3,5-dimethyl-1-(methyl-L-seryl)piperidin-4-yl)-5-methylphenyl)-1H-pyrrolo[2,3-b]pyridine-3-carbonitrile] | – | – | – | 6.61 | 8.60 | 8.32
Cc1cc(-c2ccnc3[nH]cc(C#N)c23)ccc1[C@@]1(O)[C@H](C)CN(C(=O)[C@@H](C)N)C[C@@H]1C [Compound 2010, 4-(4-((3S,4S,5R)-1-(D-alanyl)-4-hydroxy-3,5-dimethylpiperidin-4-yl)-3-methylphenyl)-1H-pyrrolo[2,3-b]pyridine-3-carbonitrile] | – | – | – | 7.05 | 8.07 | 7.87
Cc1cc(-c2ccnc3[nH]cc(C#N)c23)cc(F)c1[C@@]1(O)[C@H](C)CN(C(=O)[C@@H]2CCCN2)C[C@@H]1C [Compound 2013, 4-(4-((3S,4S,5R)-1-(L-prolyl)-4-hydroxy-3,5-dimethylpiperidin-4-yl)-3-fluoro-5-methylphenyl)-1H-pyrrolo[2,3-b]pyridine-3-carbonitrile] | – | – | – | 6.48 | 8.54 | 8.24
Cc1cc(-c2ccnc3[nH]cc(C#N)c23)ccc1[C@@]1(O)[C@H](C)CN(C(=O)[C@H](N)CO)C[C@@H]1C [Compound 2016, 4-(4-((3S,4S,5R)-1-(D-seryl)-4-hydroxy-3,5-dimethylpiperidin-4-yl)-3-methylphenyl)-1H-pyrrolo[2,3-b]pyridine-3-carbonitrile] | – | – | – | 7.31 | 8.19 | 8.04
Cc1cc(-c2ccnc3[nH]cc(C#N)c23)cc(F)c1[C@@]1(O)[C@H](C)CN(C(=O)C(C)(C)N)C[C@@H]1C [Compound 2018, 4-(4-((3S,4s,5R)-1-(2-amino-2-methylpropanoyl)-4-hydroxy-3,5-dimethylpiperidin-4-yl)-3-fluoro-5-methylphenyl)-1H-pyrrolo[2,3-b]pyridine-3-carbonitrile] | – | – | – | 6.21 | 8.14 | 7.95

The remaining lines, values ahead:

pIC50 (AKT; [1]) | pIC50 (LATS2; [1]) | pIC50 (LATS1; [1]) | pIC50 (AKT; biochemical kinase inhibition) | pIC50 (LATS2; biochemical kinase inhibition) | pIC50 (LATS1; biochemical kinase inhibition) | Structure (SMILES)
8.85 | 8.62 | 8.52 | – | – | – | NCC(=O)NCC(O)(c1ccc(Cl)cc1)c1ccc(-c2ccnc3[nH]ccc23)cc1 (stereo not drawn) [Compound 1020, N-(2-(4-(1H-pyrrolo[2,3-b]pyridin-4-yl)phenyl)-2-(4-chlorophenyl)-2-hydroxyethyl)-2-aminoacetamide]
8.51 | 7.92 | 8.02 | – | – | – | O=C(CP(=O)(O)O)NCC(O)(c1ccc(Cl)cc1)c1ccc(-c2ccnc3[nH]ccc23)cc1 (stereo not drawn) [Compound 1022, (2-((2-(4-(1H-pyrrolo[2,3-b]pyridin-4-yl)phenyl)-2-(4-chlorophenyl)-2-hydroxyethyl)amino)-2-oxoethyl) phosphonic acid]
8.92 | 8.64 | 8.42 | – | – | – | C[C@H](N)C(=O)NCC(O)(c1ccc(Cl)cc1)c1ccc(-c2ccnc3[nH]ccc23)cc1 (stereo partly drawn) [Compound 1026, (2S)-N-(2-(4-(1H-pyrrolo[2,3-b]pyridin-4-yl)phenyl)-2-(4-chlorophenyl)-2-hydroxyethyl)-2-aminopropanamide]
8.89 | 8.52 | 8.39 | – | – | – | CNCC(=O)NCC(O)(c1ccc(Cl)cc1)c1ccc(-c2ccnc3[nH]ccc23)cc1 (stereo not drawn) [Compound 1027, N-(2-(4-(1H-pyrrolo[2,3-b]pyridin-4-yl)phenyl)-2-(4-chlorophenyl)-2-hydroxyethyl)-2-(methylamino)acetamide]
8.72 | 8.62 | 8.72 | – | – | – | CC(C)(N)C(=O)NCC(O)(c1ccc(Cl)cc1)c1ccc(-c2ccnc3[nH]ccc23)cc1 (stereo not drawn) [Compound 1028, N-(2-(4-(1H-pyrrolo[2,3-b]pyridin-4-yl)phenyl)-2-(4-chlorophenyl)-2-hydroxyethyl)-2-amino-2-methylpropanamide]
